From article PMC8634879, “Design, Synthesis, and Biological Evaluation of Pyrano[2,3-c]-pyrazole–Based RalA Inhibitors Against Hepatocellular Carcinoma” (Frontiers in Chemistry, 2021)
Read-outs that look alike come from different tables or passages of the source.

Assays:
[1] = tested on: HepG2 cells; assay: Cell proliferation assay (MTT), HepG2; type: cell-based; conditions: Homo sapiens
Method: (§1) The antibodies recognizing LC3, p62/SQSTM1, RalA, RalB, and GAPDH were purchased from Proteintech (Wuhan, China). HCC cell lines, including HepG2, Hep3B, Huh-7, and SMMC-7721, were obtained from the Chinese Center for Type Culture Collection (Wuhan, China) and cultured in DMEM (Dulbecco’s modified Eagle’s medium) with 10% FBS (fetal bovine serum) and streptomycin. Cytotoxicity assays were performed by using the MTT method as previously described.
(§2) The in vitro RalA/B bioactivity assays were performed following methods outlined in previous reports. ([Yan et al., 2016]; [Zhang et al., 2018]; [Walsh et al., 2019]; [Bum-Erdene et al., 2020]). In brief, the lysates of the test compound or vehicle-treated cells were cleared using cold centrifugation, and supernatants were collected. An RalBP1 solution was added to 96-well plates and incubated for 1–2 h, and then the plates were washed thrice using ELISA buffer. Next, cellular lysates were added, and samples were incubated overnight at 4°C. Then, ice-cold mouse anti-FLAG antibody was added, and samples were incubated for one more hour. After subsequent washing with ELISA buffer thrice, the HRP-conjugated anti-mouse antibody was added, and samples were incubated for another hour. Then, the HRP substrate was added. Antigen–antibody reactions were quenched by the addition of sulfuric acid (2 mol/L). Remaining RalA/B was detected by the OD450 values which were collected by using a plate reader. Cell proliferation assays, colony formation assays, apoptosis assays, GST pulldown, and Western blotting were used following methods outlined in our previous reports. ([Zhou et al., 2015]; [Zhang et al., 2016]; [Yang et al., 2017]; [He et al., 2019]). Autophagy levels and protein immunoblotting were used following the methods mentioned in our previous reports ([Pan et al., 2018]; [Wang et al., 2018]; [Hao et al., 2019]; [Wang et al., 2019]; [Peng et al., 2020]). Detailed experimental procedures are described in supporting materials.

[2] = tested on: Hep3B cells; assay: Cell proliferation assay (MTT), Hep3B; type: cell-based; conditions: Homo sapiens, average of at least three independent replicates ± SD, read-out: Anti-proliferative activities (IC50, μM) Hep3B
Method: as §1, §2

[3] = tested on: Huh-7 cells; assay: Cell proliferation assay (MTT), Huh-7; type: cell-based; conditions: Homo sapiens
Method: as §1, §2

[4] = target: T1, RalB (Homo sapiens, UniProt P11234); assay: ELISA-based RalB activity assay (RalBP1-coated plates, lysates of compound-treated cells); type: biochemical; conditions: for remaining activity at 1 µM: 1 μM compound, % control = active (RalBP1-bound) RalB remaining; for IC50: enzymatic inhibition, average of at least three independent replicates ± SD, read-out: Kinase activities (IC50, μM) RalB
T1 construct: expressed in transfected cells; host or cells: HepG2 (from b6; the methods paragraph names no cell line)
T1 sequence (P11234 1-203 limits assumed): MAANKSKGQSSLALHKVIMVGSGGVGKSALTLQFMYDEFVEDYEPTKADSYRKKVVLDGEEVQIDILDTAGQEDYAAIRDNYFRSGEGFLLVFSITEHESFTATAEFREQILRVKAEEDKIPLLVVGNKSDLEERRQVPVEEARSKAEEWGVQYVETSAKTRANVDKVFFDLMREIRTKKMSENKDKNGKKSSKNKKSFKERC
Method: as §2

[5] = target: T2, RalA (Homo sapiens, UniProt P11233); assay: ELISA-based RalA activity assay (RalBP1-coated plates, lysates of compound-treated cells); type: biochemical; conditions: for remaining activity at 1 µM: 1 μM compound, % control = activity remained; for IC50: enzymatic inhibition, average of at least three independent replicates ± SD, read-out: Kinase activities (IC50, μM) RalA
T2 construct: expressed in transfected cells; host or cells: HepG2 (from b6; the methods paragraph names no cell line)
T2 sequence (P11233 1-203 limits assumed): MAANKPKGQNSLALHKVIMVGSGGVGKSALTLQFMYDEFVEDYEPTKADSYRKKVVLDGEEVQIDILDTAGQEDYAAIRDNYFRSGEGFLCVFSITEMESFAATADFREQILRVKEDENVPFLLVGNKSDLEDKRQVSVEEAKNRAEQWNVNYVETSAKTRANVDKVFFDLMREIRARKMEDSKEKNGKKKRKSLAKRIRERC
Method: as §2

[6] = tested on: SMMC-7721 cells; assay: Cell proliferation assay (MTT), SMMC-7721; type: cell-based; conditions: Homo sapiens, average of at least three independent replicates ± SD, read-out: Anti-proliferative activities (IC50, μM) SMMC-7721
Method: as §1, §2

[7] = HepG2, Table 1, cell proliferation inhibition, read-out: IC50 (μM) HepG2
[8] = HepG2, Table 2, average of at least three independent replicates ± SD, read-out: Anti-proliferative activities (IC50, μM) HepG2
[9] = Table 1, cell proliferation inhibition, read-out: IC50 (μM) Huh7
[10] = Table 2, average of at least three independent replicates ± SD, read-out: Anti-proliferative activities (IC50, μM) Huh-7

Row | Compound | IC50 [1, 7] [µM] | IC50 [1, 8] [µM] | IC50 [2] [µM] | IC50 [3, 9] [µM] | IC50 [3, 10] [µM] | remaining activity at 1 µM [4] [%] | IC50 [4] [µM] | remaining activity at 1 µM [5] [%] | IC50 [5] [µM] | IC50 [6] [µM] | melting point [°C]
1 | Cc1ccc(S(=O)(=O)NC2=C(C#N)C(c3ccsc3)c3c(C)nn(-c4ccccc4)c3O2)cc1 (centres unmarked) [4m, N-(5-cyano-3-methyl-1-phenyl-4-(thiophen-3-yl)-1,4-dihydropyrano[2,3-c]-pyrazol-6-yl)-4-methylbenzenesulfonamide] | 7.2 ± 0.65 | 9.15 | 9.84 ± 1.37 | > 10 | > 10 | 58 | 3.86 ± 0.39 | 45 | 1.7 ± 0.22 | 9.6 ± 1.05 | 67.8 to 68.4
2 | Cc1nn(-c2ccccc2)c2c1C(c1ccc(C(F)(F)F)cc1)C(C#N)=C(NS(=O)(=O)c1ccc(F)cc1F)O2 (centres unmarked) [4r, N-(5-cyano-3-methyl-1-phenyl-4-(4-(trifluoromethyl)phenyl)-1,4-dihydropyrano[2,3-c]-pyrazol-6-yl)-2,4-difluorobenzenesulfonamide] | 7.56 ± 0.92 | 7.56 ± 0.92 | 8.3 ± 0.66 | 7.39 ± 0.85 | 7.39 ± 0.85 | 43 | 1.49 ± 0.22 | 30 | 0.66 ± 0.08 | > 10 | 65.8 to 66.5
3 | Cc1ccc(S(=O)(=O)NC2=C(C#N)C(c3ccccc3)c3c(C)nn(-c4ccccc4)c3O2)cc1 (centres unmarked) [4a, N-(5-cyano-3-methyl-1,4-diphenyl-1,4-dihydropyrano[2,3-c]-pyrazole-6-yl)-4-methylbenzenesulfonamide] | > 10 |  |  | > 10 |  | 85 |  | 74 |  |  | 68.3 to 69.7
4 | Cc1ccc(S(=O)(=O)NC2=C(C#N)C(c3cccc(Br)c3)c3c(C)nn(-c4ccccc4)c3O2)cc1 (centres unmarked) [4f, N-(4-(3-bromophenyl)-5-cyano-3-methyl-1-phenyl-1,4-dihydropyrano[2,3-c]-pyrazol-6-yl)-4-methylbenzenesulfonamide] | 8.83 ± 0.75 |  |  | > 10 |  | 71 |  | 47 |  |  | 68.4 to 69.5
5 | Cc1ccc(-n2nc(C)c3c2OC(NS(=O)(=O)c2ccc(C)cc2)=C(C#N)C3c2ccccc2)cc1 (centres unmarked) [4ae, N-(5-cyano-3-methyl-4-phenyl-1-(p-tolyl)-1,4-dihydro-pyrano[2,3-c]-pyrazol-6-yl)-4-methylbenzenesulfonamide] | > 10 |  |  | > 10 |  | 78 |  | 79 |  |  | 142.5 to 143
6 | Cc1ccc(S(=O)(=O)NC2=C(C#N)C(c3ccncc3)c3c(C)nn(-c4ccccc4Cl)c3O2)cc1 (centres unmarked) [4u, N-(1-(2-chlorophenyl)-5-cyano-3-methyl-4-(pyridin-4-yl)-1,4-dihydropyrano[2,3-c]-pyrazol-6-yl)-4-methylbenzenesulfonamide] | 8.71 ± 0.74 |  |  | > 10 |  | 50 |  | 44 |  |  | 79 to 80
7 | COc1ccc(C2C(C#N)=C(NS(=O)(=O)c3ccc(C)cc3)Oc3c2c(C)nn3-c2ccccc2)cc1 (centres unmarked) [4i, N-(5-cyano-4-(4-methoxyphenyl)-3-methyl-1-phenyl-1,4-dihydropyrano[2,3-c]-pyrazol-6-yl)-4-methylbenzenesulfonamide] | > 10 |  |  | > 10 |  | 60 |  | 69 |  |  | 145.2 to 146
8 | Cc1ccc(S(=O)(=O)NC2=C(C#N)C(c3cccnc3)c3c(C)nn(-c4ccccc4)c3O2)cc1 (centres unmarked) [4k, N-(5-cyano-3-methyl-1-phenyl-4-(pyridin-3-yl)-1,4-dihydropyrano[2,3-c]-pyrazol-6-yl)-4-methylbenzenesulfonamide] | 5.63 ± 0.58 | 5.63 ± 0.58 | > 10 | 6.01 ± 0.57 | 6.01 ± 0.57 | 38 | 1.09 ± 0.13 | 32 | 0.75 ± 0.09 | > 10 | 
9 | Cc1ccc(S(=O)(=O)NC2=C(C#N)C(c3ccc(Br)cc3F)c3c(C)nn(-c4ccccc4)c3O2)cc1 (centres unmarked) [4h, N-(4-(4-bromo-2-fluorophenyl)-5-cyano-3-methyl-1-phen-yl-1,4-dihydropyrano[2,3-c]-pyrazol-6-yl)-4-methylbenzenesulfonamide] | > 10 |  |  | > 10 |  | 83 |  | 70 |  |  | 73.6 to 77.4
10 | Cc1ccc(S(=O)(=O)NC2=C(C#N)C(c3ccccc3)c3c(C)nn(-c4ccc(F)cc4)c3O2)cc1 (centres unmarked) [4ag, N-(5-cyano-1-(4-fluorophenyl)-3-methyl-4-phenyl-1,4-dihydropyrano[2,3-c]-pyrazol-6-yl)-4-methylbenzenesulfonamide] | > 10 |  |  | > 10 |  | 75 |  | 66 |  |  | 138.6 to 139.3
11 | Cc1ccc(S(=O)(=O)NC2=C(C#N)C(c3ccccc3)c3c(C)nn(-c4ccc(Cl)cc4)c3O2)cc1 (centres unmarked) [4ac, N-(1-(4-chlorophenyl)-5-cyano-3-methyl-4-phenyl-1,4-dihydropyrano[2,3-c]-pyrazol-6-yl)-4-methylbenzenesulfonamide] | > 10 |  |  | > 10 |  | 68 |  | 67 |  |  | 181.4 to 181.7
12 | Cc1ccc(C2C(C#N)=C(NS(=O)(=O)c3ccc(C)cc3)Oc3c2c(C)nn3-c2ccccc2)cc1 (centres unmarked) [4b, N-(5-cyano-3-methyl-1-phenyl-4-(p-tolyl)-1,4-dihydropyrano[2,3-c]-pyrazol-6-yl)-4-methylbenzenesulfonamide] | > 10 |  |  | > 10 |  | 105 |  | 75 |  |  | 74.7 to 75
